Details of data set [1]: method as in PMID 17096093, PMID 18800204. The note with it: cited from earlier work.
The nature of data set [2]: Quantification of MADAM and metabolites in HLM incubations by UHPLC/Q-ToF-MS. The format is in vitro ADME, human. The note with it: for Concentration in HLM incubation: MADAM 10 μM initial. The method, then:
(§1) MADAM and/or [^11C]MADAM (5–15 MBq) were incubated with HLM and RLM (0.5 mg/mL) at 37°C in 1 mL of 0.05 M potassium phosphate buffer (pH 7.4) containing 5 mM NADPH. Experiments were performed with MADAM concentrations of 1 and 10 μM. The incubation times were the following: […] (RLM experiments); 10, 45 and 90 min (HLM experiments). The incubation was stopped by adding an equal volume of ice-cold acetonitrile. The mixture was then vortexed and centrifuged and the supernatant was removed, evaporated. The residue was reconstituted in 150 μL mobile phase before being analyzed by radio-HPLC and UHPLC/Q-ToF-MS as described below. Control incubations in the absence of microsomes, MADAM or NADPH were also performed to assure that the observed peaks corresponded to MADAM metabolites.
(§2) The analyses were performed on a Waters (Milford, MA, USA) Acquity Ultra Performance LC^TM binary solvent manager coupled to a photodiode array detector and Waters (Micromass UK Limited, Manchester, UK) Q-Tof Premier. All the samples (10 μL) were injected onto a Waters Ethylene Bridged Hybrid (BEH) C18 column (2.1 x 50 mm, 1.7 μm) and eluted by a 5 min linear gradient starting from 100% water containing 0.1% formic acid and ending with 30% acetonitrile containing 0.1% formic acid at a flow rate of 0.5 mL/min. Positive electrospray ionization (+ESI) in V-mode with an extended dynamic range was used under the following conditions: capillary 3.5 kV, sampling cone 25 V, extraction cone 4.5 V, source temperature 100°C and desolvation temperature 380°C. Two scan functions, MS and MS^E, in the mass range of 100–1000 Da, were performed simultaneously. The collision energy was set to 5 eV during the MS acquisition and it was ramped from 10 to 35 eV during the MS^E acquisition. MetaboLynx^TM (Waters, Milford, MA, USA) was used to aid metabolite identification.
In the present study, we further aimed to estimate the concentration of the ligand (MADAM) as well as that of the identified metabolites, among them NHMADAM, SOMADAM and NHSOMADAM, for which reference compounds were available. UHPLC/Q-ToF-MS instrumentation was employed to quantify these compounds in RLM and HLM incubations using AFM as the internal standard. In HLM incubations, the concentration of MADAM decreased from 10 μM to 7.76 ± 0.5 μM at 30 min and approximately half of MADAM (5.1 ± 0.5 μM) was still present after an incubation time of 120 min. […] Negligible amounts of the other two metabolites, SOMADAM and NHSOMADAM, were detected at these times. The concentration of SOMADAM ranged from 0.12 ± 0.02 μM to 0.15 ± 0.01 μM over time. A very slight increase in the concentration of NHSOMADAM was observed, from 0.12 ± 0.01 μM to 0.32 ± 0.03 μM at 30 min and 120 min incubation times, respectively.

Data set [3] in a line: Quantification of MADAM and metabolites in RLM incubations by UHPLC/Q-ToF-MS. The format is in vitro ADME, rat. As to conditions: for Concentration in RLM incubation / Concentration in RLM incubation (in words): MADAM 10 μM initial; for Concentration in RLM incubation (in words): various incubation times. The procedure:
as §1, §2
The parent compound MADAM was present at a concentration of 1.83 ± 0.20 μM at 10 min and from 30 min the concentration was very low (0.17 to 0.09 μM), indicating a fast metabolism in RLM. […] However, the concentration of the latter declined to 2.08 ± 0.3 μM to at 10 min and to 0.72 ± 0.31 at 60 min. The quantification in HLM experiments was not undertaken after 120 min.

A short description of data set [4]: Incubation of [^11C]MADAM with rat liver microsomes, radio-HPLC. The format is in vitro ADME. As to conditions: for Percentage of unchanged [^11C]MADAM: RLM 0.5 mg/mL, NADPH, no-carrier-added. The procedure: as §1
(§3) Reversed phase HPLC was used to determine the percentages of radioactivity in microsomal incubation samples that corresponded to unchanged radioligand and its radiometabolites. The HPLC system consists of a Merck Hitachi D-7000 pump, an interface module, a Merck Hitachi L-7400 UV absorbance detector (254 nm) in series with a Packard Radiomatic 150TR radiodetector equipped with a 600 μL flow cell, and a Rheodyne 7125 manual injector. A Waters μ-Bondapak C18 column (7.8 x 300 mm, 10 μm) with acetonitrile (A) and ammonium formate 0.1M (B) as the mobile phase was used with a flow rate of 6.0 mL/min, according to the following gradient: 0–4.5 min, (A/B) 10/90-15/85; 4.5–5.0 min, (A/B) 15/85-20/80; 5.0–5.5 min (A/B) 20/80-45/55; 5.5–9.0 min (A/B) 45/55; 9.0–10 min (A/B) 45/55-70/30; 10.0–20.0 min (A/B) 70/30. The detected peaks were integrated and their areas were expressed as a percentage of the sum of areas of all radioactive compounds present (decay-corrected).
For orientation: Liver microsomes are vesicles of endoplasmic reticulum, rich in cytochrome P450 enzymes.

On the set-up of data set [5]: method as in PMID 16157534. As to conditions: 50 min after injection; cited from earlier work.
On the set-up of data set [6]: method as in PMID 24857865. The note with it: rats euthanized 15 and 30 min post injection; cited from earlier work.
The nature of data set [7]: Incubation of [^11C]MADAM with human liver microsomes, radio-HPLC. The format is in vitro ADME. As to conditions: for Percentage of unchanged [^11C]MADAM: HLM 0.5 mg/mL, NADPH, no-carrier-added; for Intact [^11C]MADAM (%): HLM, t = 45 min. The method, then: as §1, §3
A short description of data set [8]: Radio-HPLC of rat urine after intravenous perfusion of [^11C]MADAM/MADAM. Type of data set: in vivo. As to conditions: for Percentage of intact [^11C]MADAM in urine: no carrier added. The procedure: as §3
All animal handling and experiments were carried out in accordance with the guidelines of Karolinska Institutet and were approved by the local laboratory animal ethics committee (N 363/05 and N 373/07). The rats were housed under standard laboratory conditions with free access to laboratory food and water ad libitum. Male Sprague-Dawley rats were anesthetized with isoflurane, via an E-Z anesthesia vaporizer (5% initially and then 1.5% to maintain anesthesia, blended with 7:3 air: O2 and delivered through a Microflex non-rebreathing mask from Euthanex Corporation, Palmer, PA. The rats were placed on a heating pad (37°C) while [^11C]MADAM (52–76 MBq) and/or MADAM (25 μg to 1 mg) as a perfusion were administered intravenously; the rats were sacrificed at various time points after the administration (15, 30 and 60 min). Urine samples were collected at each time point and acetonitrile (400 μL) was added. After centrifugation at 3000g for 4 min, the supernatant was injected into the radio-HPLC (section 2.3). The radioactivity of the precipitate was measured to quantify the efficiency of the acetonitrile extraction.

On the set-up of data set [9]: method as in earlier work. The note with it: human, 60 minutes after injection, cited from earlier work.
On the set-up of data set [10]: method as in PMID 24857865. The note with it: cited from earlier work; for Fraction of total radioactivity in plasma: macaque plasma.

We go through eleven molecules from PMC4569384, “[^11C]MADAM Used as a Model for Understanding the Radiometabolism of Diphenyl Sulfide Radioligands for Positron Emission Tomography (PET)” (PLoS ONE, 2015).

Read-outs that look alike come from different tables or passages of the source.

On to `[11CH3]Oc1ccccc1O[C@@H](c1ccccc1)[C@@H]1CNCCO1` [(S,S)-[^11C]MeNER], for which the “Effect of addition of carrier on radiometabolic profile” value in [1] is “not affect the radiometabolic profile”.

With `Cc1ccc(Sc2ccccc2CN(C)C)c(N)c1` [MADAM], the results for the “Concentration in HLM incubation” value in data set [2] (incubation 30 min) and in data set [2] (incubation 120 min) were 7760 ± 500 nM and 5100 ± 500 nM, respectively. Besides, the “Concentration in RLM incubation” value in [3] (incubation 10 min) came out at 1830 ± 200 nM.

Take `CNCc1ccccc1Sc1ccc(C)cc1N` [NHMADAM]: the “Concentration in HLM incubation” value was determined as 2080 ± 400 nM in data set [2] (incubation 30 min) and 2890 ± 400 nM in [2] (incubation 120 min). The “Concentration in RLM incubation” value in data set [3] (incubation 10 min) stood at 2080 ± 300 nM; in [3] (incubation 60 min), 720 ± 310 nM.

For the molecule `CNCc1ccccc1[S+]([O-])c1ccc(C)cc1N` (stereo not shown) [NHSOMADAM], the “Concentration in HLM incubation” value stood at 120 ± 10 nM in data set [2] (incubation 30 min) and 320 ± 30 nM in [2] (incubation 120 min). For the same molecule, the “Concentration in RLM incubation (in words)” value in data set [3] is “very low concentrations”.

Consider `Cc1ccc(S(=O)(=O)c2ccccc2CN(C)C)c(N)c1` [SO2MADAM], for which the “Detection as metabolite of MADAM in microsomal preparations” value in data set [2] (HLM, MADAM 10 μM) is “not detected”; in [3] (RLM, MADAM 10 μM), “not detected”.

As to `Cc1ccc([S+]([O-])c2ccccc2CN(C)C)c(N)c1` (stereo not shown) [SOMADAM], the “Concentration in RLM incubation (in words)” value in data set [3] was “very low concentrations”.

As for `Cc1ccc(Sc2ccccc2CN(C)[11CH3])c(N)c1` [[^11C]MADAM], the “Percentage of unchanged [^11C]MADAM” value was 3.3 ± 1% in data set [4] (incubation 1 min); 3.3 ± 1% ^1 in data set [4] (incubation 1 min, listed as [ ^11 C]MADAM); “no [^11C]MADAM was detected” in data set [4] (incubation 4 min); 51 ± 4% in data set [7] (incubation 10 min); 51 ± 4% in data set [7] (incubation 10 min, listed as [ ^11 C]MADAM); 35 ± 1% in data set [7] (incubation 45 min). Further, the “Percentage of unchanged [^11C]MADAM” value in data set [7] (incubation 45 min, listed as [ ^11 C]MADAM) came out at 35 ± 1%; in data set [7] (incubation 90 min), 16 ± 1%; in [7] (incubation 90 min, listed as [ ^11 C]MADAM), 16 ± 1%. Further, the “Radiometabolites in control incubations” value is recorded as “No radiometabolites were detected” in [4] (RLM experiments, control without either NADPH or microsomes) and “No radiometabolites were detected” in data set [7] (HLM experiments, control without either NADPH or microsomes). Also, the “Intact [^11C]MADAM (%)” value in data set [4] (RLM, t = 1 min, carrier MADAM 10 μM) was determined as 78 ± 4%; in [7] (carrier MADAM 1 μM) it was 58 ± 2%; in [7] (carrier MADAM 10 μM) it was 80 ± 5%. The “Percentage of unchanged radioligand in human plasma” value in data set [5] is recorded as “approximately 40%”. In data set [6], the “Radioactive species in rat brain by radio-HPLC” value was “only one radioactive peak corresponding to [^11C]MADAM”. Also, in data set [8] (high dose of MADAM approximately 1 mg perfused), the “Radiometabolites by radio-HPLC or UHPLC/Q-ToF-MS” value is on record as “no radiometabolites were detected”. For the same molecule, the “Percentage of unchanged [^11C]MADAM in urine” value in data set [8] (i.v. perfusion 15 min, carrier MADAM 25 μg) is reported as 16%. Also, the Radiometabolites in urine entry in data set [8] (i.v. perfusion 15 min, carrier MADAM 125 μg) is reported as “no radiometabolites were observed”; in [8] (more than 25 μg carrier, perfusion time 30 and 60 min), “no radiometabolites were detected”. Besides, the results for the “Percentage of intact [^11C]MADAM in urine” value in data set [8] (i.v. perfusion 15 min), in data set [8] (i.v. perfusion 30 min) and in data set [8] (i.v. perfusion 60 min) were 9%, “undetectable” and “undetectable”, respectively.

With `Cc1ccc(C2CC3CCC(C2C(=O)O[11CH3])N3CC=CI)cc1` (stereo not shown) [[^11C]PE2I], the “Effect of addition of carrier on radiometabolic profile” value in data set [1] is “not affect the radiometabolic profile”.

For `[11CH3]N1CCc2cc(Cl)c(O)cc2C2c3ccccc3CCC21` (stereo not shown) [[^11C]SCH 39166], the entries for the “Percentage unchanged in plasma” value in data set [9] (high specific radioactivity) and in data set [9] (low specific radioactivity) were “approximately 30%” and ~15%, respectively.

Regarding `Cc1ccc(S(=O)(=O)c2ccccc2CN(C)[11CH3])c(N)c1` [[^11C]SO2MADAM], the “Detection in plasma as further oxidation product” value in [10] (macaque plasma after injection of [^11C]MADAM) is “No further oxidation to [^11C]SO2MADAM was detected”.

With `Cc1ccc([S+]([O-])c2ccccc2CN(C)[11CH3])c(N)c1` (stereo not shown) [[^11C]SOMADAM], the “Fraction of total radioactivity in plasma” value in [10] (4 min after injection of [^11C]MADAM) was 5%; in [10] (15 min after injection of [^11C]MADAM), 1%.
